From paper PMC9691367, “The PROTAC selectively degrading Bcl-xL represents a novel Hedgehog pathway inhibitor with capacity of combating resistance to Smoothened inhibitors while sparing bone growth” (Theranostics, 2022)
“And” between values parts separate entries of the source, which are not always exact repeats. Identical values can stand only once. Like-named read-outs stand apart in the source and are kept apart here.

Key:
[1] = biological target: Bcl-xL (Homo sapiens, UniProt Q07817); assay: Competitive fluorescence polarization assay, Bcl-xL / FAM-Bad; type: binding; details: Bcl-xL 5 nM, FAM-Bad 5 nM
Method: Competitive fluorescence polarization assays were carried out in black-walled plates in assay buffer (20 mM Na2HPO4 ·12H2O, 20 mM NaH2PO4·12H2O, 1 mM EDTA, 50 mM NaCl, 0.05% PF-68). The use of protein/peptide probe pairs was as follows: Bcl-xL (5 nM) and FAM-Bad (5 nM), Bcl-2 (100 nM) and FAM-Bax (5 nM), Mcl-1 (100 nM) and FAM-Bim (5 nM). Assay buffer, proteins, drugs, and peptides were added to the assay plates sequentially. The assay plates were slightly shaken for 3 min and incubated for 30 min at room temperature. The fluorescence polarization was measured on a Synergy 2 reader (BioTek).

[2] = test system: light II and NIH-3T3 cells; assay: In vitro cytotoxicity assay (MTT); type: cell-based; details: 10 μM, 72 h
Method: Cells were seeded in 96-well plates at an appropriate density and treated with compounds for 72 h. The effects on proliferation were determined using MTT according to the manufacturer's protocol.
Figure S2. (A) Viability of NIH-3T3 cells and light II cells was determined by MTT cytotoxicity assays after incubation with various concentrations of SIAIS361034 as indicated for 72 h. Data represent mean ± SD (n = 3). (B) NF-κB luciferase analysis of the effect of SIAIS361034 on NF-κB signaling pathway in 293T cells.The 293T cells were transfected with NF-κB luciferase reporter and Renilla-TK plasmids and […]
μM) for 6 h. Data represent mean ± SD (n = 3). (C) TCF/LEF luciferase analysis of the effect of SIAIS361034 on Wnt signaling pathway in LS174T cells. The LS174T cellswere transfected with TCF/LEF luciferase reporter and Renilla-TK plasmids and […]
Data represent mean ± SD (n = 3).
(1 picture or pasted object on this page, not shown here)

[3] = Pharmacokinetic study in male ICR mice; type: in vivo, mouse; details: for MRT last: read-out: MRT(0-t); for MRT inf: read-out: MRT(0-∞)
Method: Standard pharmacokinetic (PK) studies were conducted using male ICR Mice. A single 2 mg/kg intravenous (i.v.) injection, 10 mg/kg intraperitoneal (i.p.) injection or 10 mg/kg oral (p.o.) administration of SIAIS361034 was evaluated. Plasma concentrations of SIAIS361034 at each of the 7 time points (0.25 h, 0.5 h, 1 h, 2 h, 4 h, 8 h, and 24 h post dosing) are the average values from 3 animals.

[4] = test system: hair growth and Hh pathway activity in skin; assay: Depilatory mouse model; type: in vivo
Method: For Depilatory model studies, male C57BL/6J mice (7 to 8 weeks of age) were purchased from Shanghai Lingchang Biotechnology Co. (Shanghai, China). After 2 days of acclimation, only healthy mice were used in the experiment. The back skin of the anesthetized mice was shaved and depilated using the depilatory Nair (Church & Dwight Co., Inc.). After 4 days, the depilated mice were randomized into groups for treatments as indicated. The back skin phenotypes were recorded by taking pictures every 3 days. Skin tissues were harvested 6 h after the last dosage to examining Gli1 mRNA expression as well as Gli1 and Bcl-xL protein levels.

[5] = male ICR mice, 2 mg/kg IV, individual animals (Mouse 1-3), 2 mg/kg
[6] = male ICR mice, 10 mg/kg IP, individual animals (Mouse 1-3), 10 mg/kg
[7] = male ICR mice, 10 mg/kg PO, individual animals (Mouse 1, 3; Mouse 2 NA), 10 mg/kg
[8] = male ICR mice, 10 mg/kg PO, individual animals (Mouse 1-3), 10 mg/kg
[9] = male, ICR, mouse, plasma, ip, 10 mg/kg, male ICR mice, 10 mg/kg IP, individual animals (Mouse 1-3)
[10] = male, ICR, mouse, plasma, ip, 10 mg/kg, male ICR mice, 10 mg/kg IP, mean of 3 animals
[11] = male, ICR, mouse, plasma, iv, 2 mg/kg, male ICR mice, 2 mg/kg IV, individual animals (Mouse 1-3)
[12] = male, ICR, mouse, plasma, iv, 2 mg/kg, male ICR mice, 2 mg/kg IV, mean of 3 animals
[13] = male, ICR, mouse, plasma, po, 10 mg/kg, male ICR mice, 10 mg/kg PO, mean

Chain of Bcl-xL (Q07817 whole entry, species assumed): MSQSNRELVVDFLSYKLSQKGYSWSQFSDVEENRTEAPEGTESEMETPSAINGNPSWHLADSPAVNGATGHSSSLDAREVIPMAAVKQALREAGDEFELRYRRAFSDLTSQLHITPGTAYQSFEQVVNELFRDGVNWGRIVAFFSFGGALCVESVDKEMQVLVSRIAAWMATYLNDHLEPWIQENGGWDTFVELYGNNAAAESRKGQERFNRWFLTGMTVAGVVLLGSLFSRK

In the case of `CC1(C)CCC(c2ccc(Cl)cc2)=C(CN2CCN(c3ccc(C(=O)NS(=O)(=O)c4ccc(NCCCN5CCN(CCCC#Cc6cccc7c6CN(C6CCC(=O)NC6=O)C7=O)CC5)c(S(=O)(=O)C(F)(F)F)c4)cc3)CC2)C1` (centres unmarked) [SIAIS361034], the Ki [1] is reported as 37.3 nM, the “cytotoxicity (MTT)” value [2] is reported as “no toxic effects” and the “AUC(0-t)” value [3, 5] is reported as 6203 ng·h/mL and 4263 ng·h/mL. For the same molecule, the “AUC(0-∞)” value [3, 5] was 6222 ng·h/mL and 4305 ng·h/mL, the C0 [3, 5] was 34.215 µg/mL and 79.513 µg/mL and 43.287 µg/mL and the Cl [3, 5] was 321 mL/h/kg and 465 mL/h/kg. For the same molecule, the Cmax [3, 5] was 17900 ng/mL and 13200 ng/mL, the “MRT(0-t)” value [3, 5] was 0.30 h and 0.31 h and the “MRT(0-∞)” value [3, 5] was 0.40 h and 0.42 h. For the same molecule, the T1/2 [3, 5] was 1.79 h and 6.38 h and 2.29 h, the Vss [3, 5] was 130 mL/kg and 193 mL/kg and the Vz [3, 5] was 2957 mL/kg and 1535 mL/kg. The “AUC(0-t)” value [3, 6] was 20871 ng·h/mL and 15558 ng·h/mL, the “AUC(0-∞)” value [3, 6] was 22061 ng·h/mL and 16141 ng·h/mL and the Cmax [3, 6] was 9700 ng/mL and 4920 ng/mL. For the same molecule, the F [3, 6] was 71.4% and 96.4% and 70.5%, the “MRT(0-t)” value [3, 6] was 5.16 h and 4.24 h and the “MRT(0-∞)” value [3, 6] was 6.68 h and 5.22 h. The T1/2 [3, 6] was 5.23 h and 5.94 h, the Tmax ([3]; male ICR mice, 10 mg/kg IP, individual animals (Mouse 1-3; 0.50 twice), 10 mg/kg) was 30 min and the “AUC(0-∞)” value [3, 7] was 305 ng·h/mL and 111 ng·h/mL. For the same molecule, the “MRT(0-∞)” value [3, 7] was 10.30 h and 2.82 h, the T1/2 [3, 7] was 8.98 h and 2.39 h and the F ([3]; male ICR mice, 10 mg/kg PO, individual animals (Mouse 1, 3; Mouse 2 and mean NA), 10 mg/kg) was 1.33% and 0.484%. For the same molecule, the “AUC(0-t)” value [3, 8] was 265 ng·h/mL and 213 ng·h/mL and 101 ng·h/mL, the Cmax [3, 8] was 54.9 ng/mL and 49.1 ng/mL and the “MRT(0-t)” value [3, 8] was 6.29 h and 2.88 h and 2.01 h. For the same molecule, the Tmax ([3]; male ICR mice, 10 mg/kg PO, individual animals (Mouse 1-3; 1.00 twice), 10 mg/kg) was 120 min, the AUC(0-inf) [3, 9] was 16300 ng·h/mL and the half-life [3, 9] was 386 min. It also gave an AUC(0-t) ([3]; male, ICR, mouse, plasma, ip, 10 mg/kg, male ICR mice, 10 mg/kg IP, individual animals (Mouse 1-3), read-out: AUC(0-t)) of 15500 ng·h/mL, a Cmax ([3]; male, ICR, mouse, plasma, ip, 10 mg/kg, male ICR mice, 10 mg/kg IP, individual animals (Mouse 1-3), read-out: Cmax) of 7630 ng/mL and an MRT last [3, 9] of 3.84 h. It also gave an MRT inf [3, 9] of 5.25 h, a Tmax ([3]; male, ICR, mouse, plasma, ip, 10 mg/kg, male ICR mice, 10 mg/kg IP, individual animals (Mouse 1-3; 0.50 twice), read-out: Tmax) of 60 min and an AUC(0-inf) [3, 10] of 18200 ng·h/mL. For the same molecule, the bioavailability [3, 10] was 79.4%, the half-life [3, 10] was 352 min and the AUC(0-t) ([3]; male, ICR, mouse, plasma, ip, 10 mg/kg, male ICR mice, 10 mg/kg IP, mean of 3 animals, read-out: AUC(0-t)) was 17300 ng·h/mL. The Cmax ([3]; male, ICR, mouse, plasma, ip, 10 mg/kg, male ICR mice, 10 mg/kg IP, mean of 3 animals, read-out: Cmax) was 7420 ng/mL, the MRT last [3, 10] was 4.41 h and the MRT inf [3, 10] was 5.72 h. The Tmax ([3]; male, ICR, mouse, plasma, ip, 10 mg/kg, male ICR mice, 10 mg/kg IP, mean of 3 animals, read-out: Tmax) was 40.2 min, the AUC(0-inf) [3, 11] was 3200 ng·h/mL and the clearance [3, 11] was 10.4 mL/min/kg. It also gave an AUC(0-t) ([3]; male, ICR, mouse, plasma, iv, 2 mg/kg, male ICR mice, 2 mg/kg IV, individual animals (Mouse 1-3), read-out: AUC(0-t)) of 3190 ng·h/mL, a Cmax ([3]; male, ICR, mouse, plasma, iv, 2 mg/kg, male ICR mice, 2 mg/kg IV, individual animals (Mouse 1-3), read-out: Cmax) of 10300 ng/mL and an MRT last [3, 11] of 0.22 h. The MRT inf [3, 11] was 0.26 h, the Vd ([3]; male, ICR, mouse, plasma, iv, 2 mg/kg, male ICR mice, 2 mg/kg IV, individual animals (Mouse 1-3), read-out: Vss) was 0.163 L/kg and the Vd ([3]; male, ICR, mouse, plasma, iv, 2 mg/kg, male ICR mice, 2 mg/kg IV, individual animals (Mouse 1-3), read-out: Vz) was 1.61 L/kg. For the same molecule, the Tmax ([3]; male, ICR, mouse, plasma, iv, 2 mg/kg, male ICR mice, 2 mg/kg IV, individual animals (Mouse 1-3, same value), read-out: Tmax) was 4.98 min, the AUC(0-inf) [3, 12] was 4580 ng·h/mL and the clearance [3, 12] was 7.83 mL/min/kg. The half-life [3, 12] was 209 min, the AUC(0-t) ([3]; male, ICR, mouse, plasma, iv, 2 mg/kg, male ICR mice, 2 mg/kg IV, mean of 3 animals, read-out: AUC(0-t)) was 4550 ng·h/mL and the C0 ([3]; male, ICR, mouse, plasma, iv, 2 mg/kg, male ICR mice, 2 mg/kg IV, mean of 3 animals, read-out: C0) was 52.3 µg/mL. The Cmax ([3]; male, ICR, mouse, plasma, iv, 2 mg/kg, male ICR mice, 2 mg/kg IV, mean of 3 animals, read-out: Cmax) was 13800 ng/mL, the MRT last [3, 12] was 0.28 h and the MRT inf [3, 12] was 0.36 h. It also gave a Tmax ([3]; male, ICR, mouse, plasma, iv, 2 mg/kg, male ICR mice, 2 mg/kg IV, mean of 3 animals, read-out: Tmax) of 4.98 min, a Vd ([3]; male, ICR, mouse, plasma, iv, 2 mg/kg, male ICR mice, 2 mg/kg IV, mean of 3 animals, read-out: Vss) of 0.162 L/kg and a Vd ([3]; male, ICR, mouse, plasma, iv, 2 mg/kg, male ICR mice, 2 mg/kg IV, mean of 3 animals, read-out: Vz) of 2.03 L/kg. The Cmax ([3]; male, ICR, mouse, plasma, po, 10 mg/kg, male ICR mice, 10 mg/kg PO, individual animals (Mouse 1-3), read-out: Cmax) was 50.9 ng/mL, the Tmax ([3]; male, ICR, mouse, plasma, po, 10 mg/kg, male ICR mice, 10 mg/kg PO, individual animals (Mouse 1-3; 1.00 twice), read-out: Tmax) was 60 min and the AUC(0-inf) [3, 13] was 208 ng·h/mL. It also gave a half-life [3, 13] of 341 min, an AUC(0-t) ([3]; male, ICR, mouse, plasma, po, 10 mg/kg, male ICR mice, 10 mg/kg PO, mean of 3 animals, read-out: AUC(0-t)) of 193 ng·h/mL and a Cmax ([3]; male, ICR, mouse, plasma, po, 10 mg/kg, male ICR mice, 10 mg/kg PO, mean of 3 animals, read-out: Cmax) of 51.6 ng/mL. It also gave an MRT last ([3]; male, ICR, mouse, plasma, po, 10 mg/kg, male ICR mice, 10 mg/kg PO, mean of 3 animals) of 3.73 h, a Tmax ([3]; male, ICR, mouse, plasma, po, 10 mg/kg, male ICR mice, 10 mg/kg PO, mean of 3 animals, read-out: Tmax) of 79.8 min and an MRT inf [3, 13] of 6.56 h. For the same molecule, the “pharmacokinetic property, oral” value ([3]; mice, 10 mg/kg p.o.) was “poor pharmacokinetic property”, the plasma exposure ([3]; mice, single 10 mg/kg i.p. or 2 mg/kg i.v., over 24 h) was “good plasma exposure” and the “hair growth during depilation-induced hair regeneration” value ([4]; male C57BL/6J mice, administered after 4 days of depilation) was “significantly retarded hair growth”. For the same molecule, the “Hh activity in skin (Gli1 mRNA)” value ([4]; skin harvested 6 h after the last dosage, RT-qPCR) was “suppressed the Hh activity” and the “Gli1 and Bcl-xL protein levels in skin tissues” value ([4]; skin harvested 6 h after the last dosage, western blot) was “suppressed the expression of Gli1 and Bcl-xL”.
